{
  "source": "patent US12636300B2",
  "about": "“Methods of treatment and maintenance therapy for bladder cancer using gemcitabine” (Janssen Biotech, Inc., priority 2017, dated 2026)",
  "key": {"[1]": {"system": "muscle-invasive urothelial cell carcinoma of the bladder", "experiment": "Clinical response assessment after TAR-200 induction (cystoscopy, CT/MRI/PET, biopsy)", "assay_type": "in vivo, human", "protocol": "(§1) Subjects receive the first TAR-200 transurethrally via the TARIS Inserter on Study Day 0. On Study Day 21 (±3 days), this first TAR-200 will be removed via flexible or rigid cystoscopy, and then the second TAR-200 will be placed. TAR-200 is an intravesicular device that contains 225 mg of gemcitabine. This removal/replacement procedure is repeated for a third and fourth dosing cycle in the induction period on Study Days 42 (±3 days), and 63 (±3 days), respectively. The fourth TAR-200 will be removed on Study Day 84 (±3 days), and the 3-month response assessment will be conducted.\nDuring the maintenance period, a 21-day dosing cycle occurs every quarter (3 months) starting at approximately 6 months. Subjects may continue to undergo quarterly dosing cycles for 3 dosing cycles.\nAll subjects are assessed for clinical response every 3 months by cystoscopy, pelvic computed tomography (CT)/magnetic resonance imaging (MRI)/positron emission tomography (PET), and biopsy (at 12 weeks only, unless clinically indicated). Subjects are also assessed for symptom control at 3, 6, 9, and 12 weeks, and approximately every month during the maintenance period.\nThe secondary endpoints are proportion of subjects with clinical complete response (cCR), clinical partial response (cPR), stable disease (SD), and progression on the basis of visual lesions on cystoscopy, pelvic CT/MRI/PET, and biopsy. For purposes of this study, cCR means no evidence of the disease in the bladder or notes. cPR means in the previously N0 subject, a down staging in bladder tumor burden to <pT2 disease and no evidence of nodal disease burden or in the N1-N3 subject: a down staging in bladder tumor burden to <pT2 disease and no evidence of an increase in the size of nodal disease burden or no evidence of down staging in bladder tumor burden and a decrease in the size of nodal disease burden. Stable disease means persistent MIBC without evidence of metastasis. Progression means M1 disease or significant increase in burden of disease in bladder based upon cystoscopy and Ct/MRI/PET. […]"}, "[2]": {"experiment": "Safety and tolerability of 4 consecutive 21 day TAR-200 dosing cycles", "assay_type": "in vivo, human", "conditions": "four consecutive 3-week delivery periods; patients unfit for radical cystectomy", "protocol": "as §1\nThe primary endpoint is assessment of safety and tolerability of 4 consecutive 21 day TAR-200 dosing cycles.\nTwenty three patients were enrolled in the study as described in Example 1. The age range among the enrolled patients is from 50 to 98. The mean age is 82.6, and the median age is 84. The patients were treated and assessed according to the methods described therein. Patients that accomplished a complete response, partial response or stable disease after the induction phase received the maintenance phase treatment."}},
  "data": [
    {"smiles": "Nc1ccn([C@@H]2O[C@H](CO)[C@@H](O)C2(F)F)c(=O)n1", "note": "[gemcitabine]", "values": [
      {"measurement": "duration of durable effect after the induction therapy", "setting": "[1]; after the induction therapy", "value": "at least 100 days"},
      {"measurement": "objective response rate (ORR)", "setting": "[1]; per protocol basis, end of induction period (Day 84)", "value": 80, "unit": "%"},
      {"measurement": "complete response rate", "setting": "[1]; per protocol basis, end of induction period (Day 84), ten patients who completed four cycles", "value": 50, "unit": "%"},
      {"measurement": "tolerability of four consecutive doses (induction)", "setting": "[2]", "value": "well tolerate"}
    ]}
  ]
}
